Data as given in US20050244481A1, “Personal care products and methods for inhibiting the adherence of flora to skin” (Kimberly-Clark Worldwide, Inc., priority 2004, published 2005).

What was measured:
Type in all cases: cell-based
[1] = tested on: Pseudomonas aeruginosa (ATCC # 27853); test: Inhibition of P. aeruginosa attachment to VITRO-SKIN synthetic skin substrate (Example 1, AlamarBlue); details: 3 h, RFU at 120 min, n = 5
Experimental: Two days prior to the test a bacterial culture was started by inoculating 10 ml Luria-Bertani (LB) (Sigma-Aldrich, St. Louis, Mo.) with one frozen bead of Pseudomonas aeruginosa (ATCC # 27853), and incubating the culture overnight at 37° C. with agitation at 125 rpm.
One day prior to the test a 100 ml LB culture was inoculated with 100 μl of the overnight culture and grown overnight at 37° C. with agitation at 125 rpm. VITRO-SKIN® synthetic skin substrate (N19, IMS, Milford, Conn.) was cut with a #2 size boring tool and placed into the wells of a 96 well tissue culture plate (Costar #3596, Corning Inc., Corning, NY). The plates were kept in a humidity chamber overnight until use to prevent dehydration of the tissues.
(§1) The day of the test, the optical density at 650 nm (OD) of the overnight culture was measured using a Spectramax spectrophotometer (Molecular Devices, Sunnyvale, Calif.). The culture was centrifuged at 4,500×g for 10 minutes at 4° C. (J-251 centrifuge, Beckman, Fullerton, Calif.) to pellet the bacteria. The bacteria were resuspended in phosphate buffered saline (PBS) to give a concentration of 2×10^10 cells/ml (1 OD equals 1×10^9 cells/ml).
A 20% (w/v) solution of each inulin source (Chicory root, Dahlia tuber from Sigma-Aldrich, St. Louis, Mo.) was prepared by mixing 0.3 g inulin with PBS (Invitrogen, Carlsbad, Calif.) to a final volume of 1.5 ml. Tween 20 (Sigma-Aldrich, St. Louis, Mo.) was included as a positive control, and a 4% (v/v) stock was prepared by mixing 40 μl of Tween 20 to 960 μl PBS. The Tween 20 stock was diluted to prepare a 2% (v/v) solution of Tween 20 by mixing 800 μl of the 4% solution and 800 μl of PBS. A two fold dilution series was prepared for each inulin source as follows: • 10%: 800 μl of the 20% solution plus 800 μl of PBS • 5%: 800 μl of the 10% solution plus 800 μl of PBS • 2.5%: 800 μl of the 5% solution plus 800 μl of PBS • 1.25% 800 μl of the 2.5% solution plus 800 μl of PBS.
All tests were run five times (n=5).
For the applied dose, 50 μl of each inulin dilution, Tween 20 alone, or PBS alone was added to the VITRO-SKIN® discs followed immediately by 50 μl of either the bacteria cells or PBS. Samples containing 50 μl inulin dilutions and 50 μl PBS served as a background controls for the inulin samples. Samples containing 50 μl Tween 20 and 50 μl PBS served as background controls for the Tween 20 samples. Background controls for the PBS were 100 μl PBS. The plates were gently shaken at room temperature for three hours. The tissues were washed three times with 250 μl of PBS, and transferred to an opaque white 96 well plate (Costar # 3922). 200 μl of AlamarBlue™ (Trek Diagnostic Systems, Cleveland, Ohio) in LB (20 μl AlamarBlue™+180 μl LB per well) was added to each well. AlamarBlue™ conversion was monitored every 15 minutes in a microfluorometer (Fluoroskan Ascent, Thermo-Labsystems, Beverly, Mass.) for 120 minutes with an excitation of 544 nm and emission of 590 nm. In between readings the plates were covered and incubated at 37° C.
(§2) Results are expressed as percent bacteria adhered to the tissue relative to the PBS control. The percentage is based on the number of cells that adhered to the skin in the inulin-containing (or Tween 20-containing control) samples as compared to the number of cells that adhered to the skin in the PBS control (i.e. PBS plus bacteria cells), as determined by the AlamarBlue® levels (relative fluorescence units (RFU)) at 120 minutes. The percent adherence was calculated by the formula: (RFU of the sample−RFU of appropriate background control)/(average of the RFU of the PBS treatment−average RFU of PBS background control)*100.
The results for the five wells for each dilution step were averaged, and the percent attached as compared to the PBS control treatment was calculated.

Pseudomonas aeruginosa [2] = test: Inhibition of P. aeruginosa attachment to VITRO-SKIN synthetic skin substrate (Example 2, AlamarBlue); details: for % Attached as Compared to PBS Treatment: 3 h, RFU at 60 min, n = 3
Experimental: (§3) Two days prior to the test a bacterial culture was started by inoculating 10 ml of Luria-Bertani (LB) medium with one frozen bead containing Pseudomonas aeruginosa (Dr. G. O'Toole, Dept. Microbiol. Dartmouth Medical School, Hanover, N.H.), and incubating the culture overnight at 37° C. with agitation at 125 rpm.
(§4) One day prior to the test a 100 ml LB culture was inoculated with 100 μl of the overnight culture and grown overnight at 37° C. with agitation at 125 rpm.
as §1, with “test” for “test,”, “density” for “density at 650 nm”, “measured at 650 nm” for “measured”, “C.” for “C. (J-251 centrifuge, Beckman, Fullerton, Calif.)”, “cells/ml). […]” for “cells/ml).”
(§5) The tissues were treated with 50 μl of inulin, Tween 20 alone, or PBS alone followed immediately by 50 μl of either the bacteria cells or PBS. […] AlamarBlue™ conversion was monitored kinetically in a microfluorometer (Fluoroskan Ascent, Thermo-Labsystems, Beverly, Mass.) for 60 minutes at 37° C., with an excitation of 544 nm and emission of 590 nm.
as §2, with “(RFU)” for “(relative fluorescence units (RFU))”, “60” for “120”
(§6) The results for the three wells comprising each dilution were averaged, and the percent attached as compared to the PBS control treatment was calculated.

Pseudomonas aeruginosa [3] = test: Inhibition of P. aeruginosa attachment to EpiDerm skin culture (Example 3); details: for % Attached as Compared to PBS Treatment: 37° C., 3 h, n = 2
Experimental: The EpiDerm™ (MatTek, Ashland, Mass.) experiment was performed as outlined by the protocol supplied by the manufacturer for the EPI-200 EpiDerm™.
Two days prior to the test bacterial culture was started by inoculating 10 ml of Luria-Bertani broth (LB) with one to two well isolated colonies of Pseudomonas aeruginosa (Dr. G. O'Toole, Dept. Microbiol. Dartmouth Medical School, Hanover, N.H.) and incubating the culture overnight at 37° C. with agitation at 125 rpm.
One day prior to the test a 50 ml LB culture was inoculated with 50 μl of the overnight culture and grown overnight at 37° C. with agitation at 125 rpm. The optical density (at 650 nm) of the overnight culture was measured using a Spectramax spectrophotometer (molecular Devices, Sunnyvale, Calif.). The culture was centrifuged at 4,500×g for 10 minutes at 4° C. to pellet the bacteria. The bacteria were resuspended in phosphate buffered saline (PBS) to give a concentration of 2×10^10 cells/ml (1 OD equals 1×10^9 cells/ml).
A 20% (w/v) stock of inulin (Jerusalem Artichoke, Sigma Chemical St Louis Mo.) was prepared by mixing 0.20 g of inulin with a sufficient amount of PBS to yield a final volume of 1 ml. […]
For the applied dose, 50 μl of 20% inulin in PBS, 4% Tween 20 alone, or PBS alone was applied to the EpiDerm™ tissue followed immediately by 50 μl of either the bacteria cells or PBS. […] After three hours, the tissue was analyzed for the number of adhered bacteria.
To measure adherence of P. aeruginosa to the EPIDERM™ tissue, the liquid remaining on the tissue was first transferred to a fresh microcentrifuge tube. […] Fluorescence was monitored in a microfluorometer at an excitation of 485 nm and an emission of 510 nm.
Results are expressed as percent bacteria adhered to the tissue relative to the PBS control. […] The percent adherence was calculated by the formula: (RFU in bound fraction of the inulin or Tween 20 sample−average background RFU)/(average of the RFU in the bound fraction of the cells alone treatment−average background RFU)*100. […]

Pseudomonas aeruginosa [4] = test: Inhibition of P. aeruginosa attachment to porcine skin (Example 2, AlamarBlue); details: for % Attached as Compared to PBS Treatment: 3 h, RFU at 60 min, n = 3
Experimental: as §3, §4
as §1, with “test” for “test,”, “density” for “density at 650 nm”, “measured at 650 nm” for “measured”, “C.” for “C. (J-251 centrifuge, Beckman, Fullerton, Calif.)”, “cells/ml). […]” for “cells/ml).”
as §5
as §2, with “(RFU)” for “(relative fluorescence units (RFU))”, “60” for “120”
as §6

Tween 20 [reference compound]
% Attached as Compared to PBS Treatment ([1]; treatment concentration 2%): 50% | % Attached as Compared to PBS Treatment (Pseudomonas aeruginosa [2]; treatment concentration 2%): 10% | % Attached as Compared to PBS Treatment (Pseudomonas aeruginosa [3]; treatment concentration 2%): 73% | % Attached as Compared to PBS Treatment (Pseudomonas aeruginosa [4]; treatment concentration 2%): 70%

inulin [Chicory root]
% Attached as Compared to PBS Treatment ([1]; treatment concentration 1.25%): 92% | % Attached as Compared to PBS Treatment ([1]; treatment concentration 2.5%): 60% | % Attached as Compared to PBS Treatment ([1]; treatment concentration 5%): 45% | % Attached as Compared to PBS Treatment ([1]; treatment concentration 10%): 17%

inulin [Dahlia tuber]
% Attached as Compared to PBS Treatment ([1]; treatment concentration 1.25%): 86% | % Attached as Compared to PBS Treatment ([1]; treatment concentration 2.5%): 59% | % Attached as Compared to PBS Treatment ([1]; treatment concentration 5%): 48% | % Attached as Compared to PBS Treatment ([1]; treatment concentration 10%): 29%

inulin [Jerusalem Artichoke]
effect on attachment of P. aeruginosa to VITRO-SKIN substrate (in words) (Pseudomonas aeruginosa [2]): inhibited attachment | % Attached as Compared to PBS Treatment (Pseudomonas aeruginosa [2]; treatment concentration 10%): 53% | effect on attachment of P. aeruginosa to EpiDerm (in words) (Pseudomonas aeruginosa [3]): inhibited attachment | % Attached as Compared to PBS Treatment (Pseudomonas aeruginosa [3]; treatment concentration 10%): 57% | effect on attachment of P. aeruginosa to porcine skin (in words) (Pseudomonas aeruginosa [4]): also occurred on porcine skin | % Attached as Compared to PBS Treatment (Pseudomonas aeruginosa [4]; treatment concentration 10%): 25%
